Measurements: patent US5466671A, “Apidaecin-type peptide antibiotics with improved activities and/or different antibacterial spectrum” (priority 1994, dated 1995)
Residues, ends and D or L forms follow the SMILES beside them.

Tests used:
[1] = test system: strains tested; format: cell-based; conditions: agar plate
[2] = test system: Escherichia coli (ATCC11775); test: Inhibition zone assay (agar plate); format: cell-based
[3] = test system: Escherichia coli (11775 Apid R); format: cell-based; conditions: agar plate, 50 nanomoles/well, 3 mm wells
[4] = test system: Enterobacter cloacae; test: Inhibition zone assay (agar plate); format: cell-based
[5] = test system: Erwinia amylovora; test: Inhibition zone assay (agar plate); format: cell-based
[6] = test system: Klebsiella pneumoniae; test: Inhibition zone assay (agar plate); format: cell-based
[7] = test system: Morganella morganii; test: Inhibition zone assay (agar plate); format: cell-based; conditions: 50 nanomoles/well, 3 mm wells
[8] = test system: Salmonella typhimurium; test: Inhibition zone assay (agar plate); format: cell-based
[9] = test system: Salmonella typhi; format: cell-based
[10] = test system: Yersinia enterocolitica; test: Inhibition zone assay (agar plate); format: cell-based; conditions: 50 nanomoles/well, 3 mm wells
[11] = test system: Acinetobacter calcoaceticus; test: Inhibition zone assay (agar plate); format: cell-based
[12] = test system: Agrobacterium tumefaciens; test: Inhibition zone assay (agar plate); format: cell-based
[13] = test system: Francisella tularensis; format: cell-based; conditions: agar plate, 50 nanomoles/well, 3 mm wells
[14] = test system: Pseudomonas syringae; test: Inhibition zone assay (agar plate); format: cell-based; conditions: agar plate, 50 nanomoles/well, 3 mm wells
[15] = test system: Rhizobium meliloti; test: Inhibition zone assay (agar plate); format: cell-based; conditions: 50 nanomoles/well, 3 mm wells
[16] = test system: Haemophilus influenzae; test: Inhibition zone assay (agar plate); format: cell-based; conditions: 50 nanomoles/well, 3 mm wells
[17] = test system: E. coli Apid^R; test: Minimal inhibitory concentration (liquid culture); format: cell-based; conditions: inoculum 1000 CFU/ml; a-b = highest concentration with growth - lowest without growth
Source text: For details see `Experimental Procedures`.

[18] = test system: E. coli 11775; test: Minimal inhibitory concentration (liquid culture); conditions: a-b = highest concentration with growth - lowest without growth
[19] = test system: E. coli 23802; test: Minimal inhibitory concentration (liquid culture); conditions: inoculum 5000 CFU/ml; a-b = highest concentration with growth - lowest without growth
[20] = test system: E. coli 25922; test: Minimal inhibitory concentration (liquid culture); conditions: inoculum 1100 CFU/ml; a-b = highest concentration with growth - lowest without growth
[21] = test system: S. typhimurium; test: Minimal inhibitory concentration (liquid culture); conditions: inoculum 8 × 10^6 CFU/ml; a-b = highest concentration with growth - lowest without growth
[22] = test system: A. calcoaceticus; test: Minimal inhibitory concentration (liquid culture); conditions: inoculum 16 × 10^6 CFU/ml; a-b = highest concentration with growth - lowest without growth
[23] = test system: M. morganii; test: Minimal inhibitory concentration (liquid culture); conditions: inoculum 400 CFU/ml; a-b = highest concentration with growth - lowest without growth
[24] = test system: Y. enterocolitica; test: Minimal inhibitory concentration (liquid culture); conditions: inoculum 5000 CFU/ml; a-b = highest concentration with growth - lowest without growth
[25] = test system: gram negative bacteria; conditions: many gram negative bacteria; cited from earlier work
[26] = test system: gram positives; conditions: cited from earlier work
[27] = test system: Shigella dysenteriae; format: cell-based; conditions: 50 nanomoles per well (3 mm diameter)
[28] = test system: E. coli D22; format: cell-based; conditions: 50 nanomoles per well (3 mm diameter)
[29] = agar plate, 50 nanomoles/well, 3 mm wells
[30] = 50 nanomoles per well (3 mm diameter)

For `CC(C)C[C@H](NC(=O)[C@H](CCCNC(=N)N)NC(=O)[C@@H]1CCCN1C(=O)[C@H](Cc1c[nH]cn1)NC(=O)[C@@H]1CCCN1C(=O)[C@@H](NC(=O)[C@H](CCCNC(=N)N)NC(=O)[C@@H]1CCCN1C(=O)[C@@H]1CCCN1C(=O)[C@@H](NC(=O)[C@H](CCC(N)=O)NC(=O)[C@H](CCC(N)=O)NC(=O)[C@@H]1CCCN1C(=O)[C@H](CCCNC(=N)N)NC(=O)[C@@H]1CCCN1C(=O)[C@H](CCCCN)NC(=O)CN)C(C)C)[C@@H](C)O)C(=O)O` [HoGT, G K P R P Q Q V P P R T P H P R L] (H-GKPRPQQVPPRTPHPRL-OH), the “antibacterial activity, overall (inhibition zone)” value [1] was “lack detectable antibacterial activity”.

For `CC[C@H](C)[C@H](NC(=O)[C@@H]1CCCN1C(=O)[C@H](C)NC(=O)[C@@H]1CCCN1C(=O)[C@H](CCCNC(=N)N)NC(=O)[C@@H]1CCCN1C(=O)[C@H](CCCNC(=N)N)NC(=O)[C@@H](N)CC(N)=O)C(=O)N[C@@H](CCC(N)=O)C(=O)N1CCC[C@H]1C(=O)N[C@@H](CCCNC(=N)N)C(=O)N1CCC[C@H]1C(=O)N1CCC[C@H]1C(=O)N[C@@H](Cc1c[nH]cn1)C(=O)N1CCC[C@H]1C(=O)N[C@@H](CCCNC(=N)N)C(=O)N[C@@H](CC(C)C)C(=O)O` [Cd 1-, Asn--Arg--Pro--Arg--Pro--Ala--Pro--Ile--Gln--Pro--Arg--Pro--Pro--His--Pro--Arg--Leu] (H-NRPRPAPIQPRPPHPRL-OH), the “inhibition zone diameter (number of plus signs)” value (“inhibition zone diameter” for short) [2, 29] was “+++ ((+++) 10-14 mm)”, the “inhibition zone diameter” value [3] was “++ ((++) 7-9 mm)” and the “inhibition zone diameter” value [4, 29] was “+++ ((+++) 10-14 mm)”. The “inhibition zone diameter” value [5, 29] was “++++ ((++++) 15-19 mm)”, the “inhibition zone diameter” value [6, 29] was “++ ((++) 7-9 mm)” and the “inhibition zone diameter” value [7] was “++ ((++) 7-9 mm)”. The “inhibition zone diameter” value [8, 29] was “+++ ((+++) 10-14 mm)”, the “inhibition zone diameter” value [9, 29] was “++ ((++) 7-9 mm)” and the “inhibition zone diameter” value [10] was “++ ((++) 7-9 mm)”. For the same compound, the “inhibition zone diameter” value [11, 29] was “++ ((++) 7-9 mm)”, the “inhibition zone diameter” value [12, 29] was “+++ ((+++) 10-14 mm)” and the “inhibition zone diameter” value [13] was “++ ((++) 7-9 mm)”. The “inhibition zone diameter” value [14] was “++++ ((++++) 15-19 mm)”, the “inhibition zone diameter” value [15] was “++++ ((++++) 15-19 mm)” and the “inhibition zone diameter” value [16] was “+++ ((+++) 10-14 mm)”. The “minimal inhibitory concentration (MIC)” value [17] was greater than 40 µg/mL, the “minimal inhibitory concentration (MIC)” value ([18]; inoculum 16 × 10^6 CFU/ml) was 0.5 to 1 µg/mL and the “minimal inhibitory concentration (MIC)” value ([18]; inoculum 1200 CFU/ml) was 0.5 to 1 µg/mL. The “minimal inhibitory concentration (MIC)” value [19] was 5 to 10 µg/mL, the “minimal inhibitory concentration (MIC)” value [20] was 0.5 to 1 µg/mL and the “minimal inhibitory concentration (MIC)” value [21] was 0.5 to 1 µg/mL. The “minimal inhibitory concentration (MIC)” value [22] was greater than 20 µg/mL, the “minimal inhibitory concentration (MIC)” value [23] was 20 to 40 µg/mL and the “minimal inhibitory concentration (MIC)” value [24] was 5 to 10 µg/mL.

With `CC(C)C[C@H](NC(=O)[C@H](CCCNC(=N)N)NC(=O)[C@@H]1CCCN1C(=O)[C@H](Cc1c[nH]cn1)NC(=O)[C@@H]1CCCN1C(=O)[C@@H](NC(=O)[C@H](CCCNC(=N)N)NC(=O)[C@@H]1CCCN1C(=O)[C@@H]1CCCN1C(=O)[C@@H](NC(=O)[C@H](CCC(N)=O)NC(=O)[C@H](CCC(N)=O)NC(=O)[C@@H]1CCCN1C(=O)[C@H](CCCNC(=N)N)NC(=O)[C@@H]1CCCN1C(=O)[C@H](CCCCN)NC(=O)[C@@H](N)Cc1ccccc1)C(C)C)[C@@H](C)O)C(=O)O` [HoFT, F K P R P Q Q V P P R T P H P R L] (H-FKPRPQQVPPRTPHPRL-OH) the “antibacterial activity, overall (inhibition zone)” value [1] was “lack detectable antibacterial activity”.

In the case of `CC[C@H](C)[C@H](NC(=O)[C@H](Cc1ccc(O)cc1)NC(=O)[C@@H](NC(=O)[C@@H]1CCCN1C(=O)[C@H](CCCNC(=N)N)NC(=O)[C@H](CC(N)=O)NC(=O)[C@H](CC(N)=O)NC(=O)CN)C(C)C)C(=O)N1CCC[C@H]1C(=O)N[C@@H](CCC(N)=O)C(=O)N1CCC[C@H]1C(=O)N[C@@H](CCCNC(=N)N)C(=O)N1CCC[C@H]1C(=O)N1CCC[C@H]1C(=O)N[C@@H](Cc1cnc[nH]1)C(=O)N1CCC[C@H]1C(=O)N[C@@H](CCCNC(=N)N)C(=O)N[C@@H](CC(C)C)C(=O)O` [Apidaecin] (H-GNNRPVYIPQPRPPHPRL-OH), the dose inhibiting viability [25] is listed as “nanomolar doses” and the “effect on gram positives” value [26] is listed as “unaffected”.

For `CC[C@H](C)[C@H](NC(=O)[C@@H]1CCCN1C(=O)[C@@H](NC(=O)[C@H](CCC(N)=O)NC(=O)[C@@H]1CCCN1C(=O)[C@H](CO)NC(=O)[C@@H]1CCCN1C(=O)[C@H](CCCNC(=N)N)NC(=O)[C@@H](N)CO)C(C)C)C(=O)N[C@@H](CCCNC(=N)N)C(=O)N1CCC[C@H]1C(=O)N[C@@H](CO)C(=O)N[C@@H](CCC(N)=O)C(=O)N1CCC[C@H]1C(=O)N[C@@H](CCCNC(=N)N)C(=O)N1CCC[C@H]1C(=O)N[C@@H](CCC(N)=O)C(=O)N1CCC[C@H]1C(=O)N[C@@H](Cc1ccccc1)C(=O)N[C@@H](CCCCN)C(=O)N1CCC[C@H]1C(=O)N[C@@H](CCCNC(=N)N)C(=O)N1CCC[C@H]1C(=O)N[C@@H](CCC(N)=O)C(=O)N[C@@H](CCC(N)=O)C(=O)N[C@H](C(=O)N1CCC[C@H]1C(=O)N1CCC[C@H]1C(=O)N[C@@H](CCCNC(=N)N)C(=O)N[C@H](C(=O)N1CCC[C@H]1C(=O)N[C@@H](Cc1c[nH]cn1)C(=O)N1CCC[C@H]1C(=O)N[C@@H](CCCNC(=N)N)C(=O)N[C@@H](CC(C)C)C(=O)O)[C@@H](C)O)C(C)C` [PAB-FT 1-35, SRPSPQVPIRPSQPRPQPFKPRPQQVPPRTPHPRL] (H-SRPSPQVPIRPSQPRPQPFKPRPQQVPPRTPHPRL-OH), the “Inhibition zones: in mm diameter” value [2, 30] was 10 mm, the “Inhibition zones: in mm diameter” value [4, 30] was 11 mm and the “Inhibition zones: in mm diameter” value [5, 30] was 5 mm. The “Inhibition zones: in mm diameter” value [6, 30] was 9 mm, the “Inhibition zones: in mm diameter” value [8, 30] was 7 mm and the “Inhibition zones: in mm diameter” value [9, 30] was 14 mm. For the same compound, the “Inhibition zones: in mm diameter” value [27] was 12 mm, the “Inhibition zones: in mm diameter” value [11, 30] was 7 mm and the “Inhibition zones: in mm diameter” value [12, 30] was 5 mm. The “Inhibition zones: in mm diameter” value [28] was 14 mm and the “antibacterial activity, overall (inhibition zone)” value [1] was “has antibacterial activity”.
